Where no end group is shown, it is not given here.

The subject of one assay is purified binding protein. As to the kind of experiment: competition for binding of labelled human/bovine/porcine IGF-1 to purified binding protein. Particulars: competition with labelled human/bovine/porcine IGF-1. The text has this:
This apparent discrepancy is caused by the myoblasts producing a binding protein in addition to the receptor. This binding protein selectively binds those IGF-1 peptides that have a glutamic acid residue at position 3 from the N-terminal, thus preventing the peptide binding to the cell receptor. This interpretation is established by the following results [determined by the method of Martin and Baxter, J. Biol, Chem. 261: 8754-8760, (1986)] with purified binding proteins (see Table 2).

Another assay has as its system L6 myoblasts. Put plainly: incorporation of 3H-labelled leucine into total cell protein of L6 myoblasts (protein synthesis bioassay). Type of assay: cell-based. Particulars: for Concentration (percent of that required to give a half-response with hIGF-1): hIGF-1 half-response 12 ng/ml = 100, lower = more potent. The text has this: Bioassays of purified synthetic peptides have been compared with pure human/bovine/porcine IGF-1. The assays involve the incorporation of 3H-labelled leucine into the total cell protein of L6 myoblasts as described by Francis et al. (Biochem. J. 233:207-213, 1986).

For “Gly--Pro--Arg--Thr--Leu--Cys--: IGF-1 analogue: glutamic acid at position 3 substituted with arginine (GPRTLC; not fully specified (C-terminus); printed as Gly—Pro—Arg—Thr—Leu—Cys—; ends and bridges not checked; also: N-terminal part of IGF-1 analogue, rest of chain not shown)”, the “Potency for binding to the protein where hIGF-1 = 100%” value in the assay on purified binding protein is on record as < 0.1%. The “Concentration (percent of that required to give a half-response with hIGF-1)” value in the assay on L6 myoblasts turned out to be 5%.

Take “Gly--Pro--Gln--Thr--Leu--Cys--: IGF-1 analogue: glutamic acid at position 3 substituted with glutamine (GPQTLC; not fully specified (C-terminus); printed as Gly—Pro—Gln—Thr—Leu—Cys—; ends and bridges not checked; also: N-terminal part of IGF-1 analogue, rest of chain not shown)”: the “Potency for binding to the protein where hIGF-1 = 100%” value in the assay on purified binding protein turned out to be 1.0%. In addition, the “Concentration (percent of that required to give a half-response with hIGF-1)” value in the assay with L6 myoblasts worked out at 18%.

As to “Gly--Pro--Glu--Thr--Leu--Cys--: pure human/bovine/porcine insulin-like growth factor-1, full 70-residue sequence (b3) (GPETLC; not fully specified (C-terminus); ends and bridges not checked; also: N-terminal part of IGF-1, rest of chain not shown) [reference compound]”, the “Potency for binding to the protein where hIGF-1 = 100%” value in the assay on purified binding protein is reported as 100%. For the same substance, in the assay with L6 myoblasts (3H-leucine incorporation), the “concentration required to give a half-response” value is 12 ng/mL. Besides, the “Concentration (percent of that required to give a half-response with hIGF-1)” value in the assay on L6 myoblasts amounted to 100%.

Regarding “Gly--Pro--Gly--Arg--Leu--Cys--: IGF-1 analogue: glutamic acid 3 substituted with glycine and threonine 4 with arginine (GPGRLC; not fully specified (C-terminus); printed as Gly—Pro—Gly—Arg—Leu—Cys—; ends and bridges not checked; also: N-terminal part of IGF-1 analogue, rest of chain not shown)”, the “Potency for binding to the protein where hIGF-1 = 100%” value in the assay on purified binding protein was < 0.1%. Besides, the “Concentration (percent of that required to give a half-response with hIGF-1)” value with L6 myoblasts is reported as 4%.

In the case of “Gly--Pro--Gly--Gly--Leu--Cys--: IGF-1 analogue: glutamic acid 3 substituted with glycine and threonine 4 with glycine (GPGGLC; not fully specified (C-terminus); printed as Gly—Pro—Gly—Gly—Leu—Cys—; ends and bridges not checked; also: N-terminal part of IGF-1 analogue, rest of chain not shown)”, the “Potency for binding to the protein where hIGF-1 = 100%” value with purified binding protein stood at 0.1%. The “Concentration (percent of that required to give a half-response with hIGF-1)” value in the assay on L6 myoblasts came out at 14%.

On to “Gly--Pro--Gly--Thr--Leu--Cys--: IGF-1 analogue: glutamic acid at position 3 substituted with glycine (GPGTLC; not fully specified (C-terminus); printed as Gly—Pro—Gly—Thr—Leu—Cys—; ends and bridges not checked; also: N-terminal part of IGF-1 analogue, rest of chain not shown)”, for which the “Potency for binding to the protein where hIGF-1 = 100%” value in the assay on purified binding protein amounted to 0.5%. The “Concentration (percent of that required to give a half-response with hIGF-1)” value in the assay with L6 myoblasts is given as 12%.

As to “Gly--Pro--Leu--Thr--Leu--Cys--: IGF-1 analogue: glutamic acid at position 3 substituted with leucine (GPLTLC; not fully specified (C-terminus); printed as Gly—Pro—Leu—Thr—Leu—Cys—; ends and bridges not checked; also: N-terminal part of IGF-1 analogue, rest of chain not shown)”, the “Potency for binding to the protein where hIGF-1 = 100%” value with purified binding protein came out at 0.5%. Further, in the assay on L6 myoblasts, the “Concentration (percent of that required to give a half-response with hIGF-1)” value was 18%.

For “Gly--Pro--Lys--Thr--Leu--Cys--: IGF-1 analogue: glutamic acid at position 3 substituted with lysine (GPKTLC; not fully specified (C-terminus); printed as Gly—Pro—Lys—Thr—Leu—Cys—; ends and bridges not checked; also: N-terminal part of IGF-1 analogue, rest of chain not shown)”, the “Potency for binding to the protein where hIGF-1 = 100%” value in the assay on purified binding protein was 0.1%. The “Concentration (percent of that required to give a half-response with hIGF-1)” value in the assay on L6 myoblasts is 11%.

As to “Gly--Thr--Leu--Cys--: IGF-1 analogue: Gly, Pro removed and glutamic acid substituted with glycine (GTLC; not fully specified (C-terminus); printed as Gly—Thr—Leu—Cys—; ends and bridges not checked; also: N-terminal part of IGF-1 analogue, rest of chain not shown)”, the “Potency for binding to the protein where hIGF-1 = 100%” value in the assay on purified binding protein is 1.0%. The “Concentration (percent of that required to give a half-response with hIGF-1)” value with L6 myoblasts is 16%.

Source of the values: patent US5164370A, “Peptide analogues of insulin-like growth factor 1 (IGF-1) or factor 2 (IGF-2)” (Gropep Pty. Ltd., priority 1987, dated 1992).
